Experimental data from patent publication US7553969B1, “Substituted phenethylamine derivatives” (Chugai Seiyaku Kabushiki Kaisha, priority 1999, dated 2009).
pIC50: −log10 of the molar value. Where a SMILES comes first, the peptide text is derived from it. [ ]: non-standard residue; d: D form. The star is where a group is joined. NMeTyr(3-tBu) = CN[C@@H](Cc1ccc(O)c(C(C)(C)C)c1)C(=O)O; Tyr(3-tBu) = CC(C)(C)c1cc(C[C@H](N)C(=O)O)ccc1O; NMePhe(4-F) = CN[C@@H](Cc1ccc(F)cc1)C(=O)O; Phe(4-F) = N[C@@H](Cc1ccc(F)cc1)C(=O)O; NMeV = CN[C@H](C(=O)O)C(C)C; NHtBu = CC(C)(C)N*; NHiPr = CC(C)N*; NHPr = CCCN*

How the values were obtained:
[1] = system: specimen of longitudinal muscle in the duodenum extracted from a rabbit (motilin-induced contraction); experiment: Action on the motilin-induced contraction of a specimen of longitudinal muscle in the duodenum extracted from a rabbit; conditions: organ bath, Krebs solution 28° C.; for Kb: Oryctolagus cuniculus, read-out: Contraction suppressing test, pA2 (converted)
Description: Action on the Contraction of a Specimen of Longitudinal Muscle in the Duodenum Extracted from a Rabbit
The action on the motilin-induced contraction of a specimen of longitudinal muscle in the duodenum extracted from a rabbit was investigated by the following method. A duodenum specimen (5×15 mm) extracted from a slaughtered rabbit was suspended in an organ bath (10 ml) such that the longitudinal muscle would run vertically; the bath was filled with a Krebs solution kept at 28° C. A mixed gas (95% O2 and 5% CO2) was continuously bubbled into the Krebs solution and the contraction of the duodenum specimen was recorded isotonically (with a 1-g load) via an isotonic transducer (ME-3407, ME Commercial, Tokyo, Japan). The degree of contraction was expressed in relative values, with the contraction by acetylcholine at a dose of 10^−4 M being taken as 100%. The activity of the compound was calculated as pA2 value indicating its effect on the dose-dependent muscle contraction by the motilin put into the organ bath.

[2] = biological target: T1, motilin receptor (Oryctolagus cuniculus, UniProt G1T803); experiment: Motilin receptor binding test (125I motilin, rabbit duodenum protein sample); conditions: 125I motilin 25 pM, concentration reducing specific binding by 50%
T1 construct: homogenized in 50 mM Tris buffer to prepare a protein sample; from tissue; host or cells: rabbit duodenum homogenate (mucous membrane separated)
Description: Motilin receptor binding test
A motilin receptor binding test was conducted in the following manner [Vantrappen et al., Regul. Peptides, 15, 143 (1986)]. The duodenum was extracted from a slaughtered rabbit, had the mucous membrane separated and homogenized in 50 mM Tris buffer to prepare a protein sample. The protein sample was incubated together with ^125I motilin 25 pM and thereafter the radioactivity bound to the protein was measured. Specific binding was defined as the difference between the radioactivity in the case of adding a great excess amount of motilin (10^−7 M) and that in the case of no adding. The activity of the compound was expressed by IC50 (in nM), as the concentration sufficient to reduce the specific binding by 50%.

T1 sequence (G1T803 1-400): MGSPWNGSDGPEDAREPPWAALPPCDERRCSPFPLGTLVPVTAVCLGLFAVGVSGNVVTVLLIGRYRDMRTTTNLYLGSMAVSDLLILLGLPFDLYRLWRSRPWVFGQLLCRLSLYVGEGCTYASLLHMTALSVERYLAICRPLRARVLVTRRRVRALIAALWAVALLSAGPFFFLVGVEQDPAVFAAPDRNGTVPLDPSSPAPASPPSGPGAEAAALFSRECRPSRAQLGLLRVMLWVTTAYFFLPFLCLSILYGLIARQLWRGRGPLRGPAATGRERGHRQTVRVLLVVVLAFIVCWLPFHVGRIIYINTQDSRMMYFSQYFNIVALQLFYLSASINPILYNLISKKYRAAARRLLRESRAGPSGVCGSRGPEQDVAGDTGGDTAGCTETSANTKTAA

| Compound | Kb [1] [nM] | pIC50 [2] | Contraction suppressing test, pA2 [1] |
| --- | --- | --- | --- |
| CCN[C@@H](Cc1ccc(F)cc1)C(=O)N(C)[C@H](C(=O)N(C)[C@@H](Cc1ccc(O)c(C(C)(C)C)c1)C(N)=O)C(C)C [Example 35, N-Et-Phe(4-F)-N-Me-Val-N-Me-Tyr(3-tBu)-NH2] | 1.58 | 8.77 | – |
| CNC(=O)[C@H](Cc1ccc(O)c(C(C)(C)C)c1)N(C)C(=O)[C@H](C(C)C)N(C)C(=O)[C@@H](N)Cc1ccc(F)cc1 [Example 36, Phe(4-F)-N-Me-Val-N-Me-Tyr(3-tBu)-NHMe] (H-[Phe(4-F)]-[NMeV]-[NMeTyr(3-tBu)]-NHMe) | 1.58 | 8.64 | – |
| CNC(=O)[C@H](Cc1ccc(O)c(C(C)(C)C)c1)N(C)C(=O)[C@H](C(C)C)N(C)C(=O)[C@H](Cc1ccc(F)cc1)NC [Example 37, N-Me-Phe(4-F)-N-Me-Val-N-Me-Tyr(3-tBu)-NHMe] (H-[NMePhe(4-F)]-[NMeV]-[NMeTyr(3-tBu)]-NHMe) | 1.58 | 9.22 | – |
| CCN[C@@H](Cc1ccc(F)cc1)C(=O)N(C)[C@H](C(=O)N(C)[C@@H](Cc1ccc(O)c(C(C)(C)C)c1)C(=O)NC)C(C)C [Example 38, N-Et-Phe(4-F)-N-Me-Val-N-Me-Tyr(3-tBu)-NHMe] | 6.31 | 8.52 | – |
| CCN(C(=O)[C@H](C(C)C)N(C)C(=O)[C@@H](N)Cc1ccc(F)cc1)[C@@H](Cc1ccc(O)c(C(C)(C)C)c1)C(N)=O [Example 39, Phe(4-F)-N-Me-Val-N-Et-Tyr(3-tBu)-NH2] | 2 | 8.70 | – |
| CCN(C(=O)[C@H](C(C)C)N(C)C(=O)[C@H](Cc1ccc(F)cc1)NC)[C@@H](Cc1ccc(O)c(C(C)(C)C)c1)C(N)=O [Example 40, N-Me-Phe(4-F)-N-Me-Val-N-Et-Tyr(3-tBu)-NH2] | 2.51 | 8.80 | – |
| CCN[C@@H](Cc1ccc(F)cc1)C(=O)N(C)[C@H](C(=O)N(CC)[C@@H](Cc1ccc(O)c(C(C)(C)C)c1)C(N)=O)C(C)C [Example 41, N-Et-Phe(4-F)-N-Me-Val-N-Et-Tyr(3-tBu)-NH2] | 3.98 | 8.51 | – |
| CCN(C(=O)[C@H](C(C)C)N(C)C(=O)[C@@H](N)Cc1ccc(F)cc1)[C@@H](Cc1ccc(O)c(C(C)(C)C)c1)C(=O)NC [Example 42, Phe(4-F)-N-Me-Val-N-Et-Tyr(3-tBu)-NHMe] | 5.01 | 8.92 | – |
| CCN(C(=O)[C@H](C(C)C)N(C)C(=O)[C@H](Cc1ccc(F)cc1)NC)[C@@H](Cc1ccc(O)c(C(C)(C)C)c1)C(=O)NC [Example 43, N-Me-Phe(4-F)-N-Me-Val-N-Et-Tyr(3-tBu)-NHMe] | 3.16 | 8.72 | – |
| CCN[C@@H](Cc1ccc(F)cc1)C(=O)N(C)[C@H](C(=O)N(CC)[C@@H](Cc1ccc(O)c(C(C)(C)C)c1)C(=O)NC)C(C)C [Example 44, N-Et-Phe(4-F)-N-Me-Val-N-Et-Tyr(3-tBu)-NHMe] | 3.16 | 8.44 | – |
| CC(C)[C@@H](C(=O)N[C@@H](Cc1ccc(O)c(C(C)(C)C)c1)C(=O)NC(C)(C)C)N(C)C(=O)[C@@H](N)Cc1ccc(F)cc1 [Example 63, Phe(4-F)-N-Me-Val-Tyr(3-tBu)-NHtBu] (H-[Phe(4-F)]-[NMeV]-[Tyr(3-tBu)]-NHtBu) | 3.98 | 9.21 | – |
| CC(C)C(C(=O)N(C)C(Cc1ccc(O)c(C(C)(C)C)c1)C(=O)NCS(C)(=O)=O)N(C)C(=O)C(N)Cc1ccc(F)cc1 (centres unmarked) [Example 64, Phe(4-F)-N-Me-Val-N-Me-Tyr(3-tBu)-NHCH2SO2CH3] | – | 9.00 | 9.0 |
| CCNC(=O)[C@H](Cc1ccc(O)c(C(C)(C)C)c1)NC(=O)[C@H](C(C)C)N(C)C(=O)[C@@H](N)Cc1ccc(F)cc1 [Example 101, Phe(4-F)-N-Me-Val-Tyr(3-tBu)-NHEt] (H-[Phe(4-F)]-[NMeV]-[Tyr(3-tBu)]-NHEt) | 1.26 | 9.62 | – |
| CCNC(=O)[C@H](Cc1ccc(O)c(C(C)(C)C)c1)NC(=O)[C@H](C(C)C)N(C)C(=O)[C@H](Cc1ccc(F)cc1)NC [Example 102, N-Me-Phe(4-F)-N-Me-Val-Tyr(3-tBu)-NHEt] (H-[NMePhe(4-F)]-[NMeV]-[Tyr(3-tBu)]-NHEt) | 1 | 9.51 | – |
| CCNC(=O)[C@H](Cc1ccc(O)c(C(C)(C)C)c1)NC(=O)[C@H](C(C)C)N(C)C(=O)[C@H](Cc1ccc(F)cc1)NCC [Example 103, N-Et-Phe(4-F)-N-Me-Val-Tyr(3-tBu)-NHEt] | 1.26 | 9.07 | – |
| CCNC(=O)[C@H](Cc1ccc(O)c(C(C)(C)C)c1)N(C)C(=O)[C@H](C(C)C)N(C)C(=O)[C@@H](N)Cc1ccc(F)cc1 [Example 104, Phe(4-F)-N-Me-Val-N-Me-Tyr(3-tBu)-NHEt] (H-[Phe(4-F)]-[NMeV]-[NMeTyr(3-tBu)]-NHEt) | 0.794 | 9.49 | – |

| Compound | Kb [1] [nM] | pIC50 [2] | Contraction suppressing test, pA2 [1] |
| --- | --- | --- | --- |
| CCNC(=O)[C@H](Cc1ccc(O)c(C(C)(C)C)c1)N(C)C(=O)[C@H](C(C)C)N(C)C(=O)[C@H](Cc1ccc(F)cc1)NC [Example 105, N-Me-Phe(4-F)-N-Me-Val-N-Me-Tyr(3-tBu)-NHEt] (H-[NMePhe(4-F)]-[NMeV]-[NMeTyr(3-tBu)]-NHEt) | 0.158 | 9.51 | – |
| CCNC(=O)[C@H](Cc1ccc(O)c(C(C)(C)C)c1)N(C)C(=O)[C@H](C(C)C)N(C)C(=O)[C@H](Cc1ccc(F)cc1)NCC [Example 106, N-Et-Phe(4-F)-N-Me-Val-N-Me-Tyr(3-tBu)-NHEt] | 0.158 | 9.21 | – |
| CCNC(=O)[C@H](Cc1ccc(O)c(C(C)(C)C)c1)N(CC)C(=O)[C@H](C(C)C)N(C)C(=O)[C@@H](N)Cc1ccc(F)cc1 [Example 107, Phe(4-F)-N-Me-Val-N-Et-Tyr(3-tBu)-NHEt] | 2 | 9.41 | – |
| CCNC(=O)[C@H](Cc1ccc(O)c(C(C)(C)C)c1)N(CC)C(=O)[C@H](C(C)C)N(C)C(=O)[C@H](Cc1ccc(F)cc1)NC [Example 108, N-Me-Phe(4-F)-N-Me-Val-N-Et-Tyr(3-tBu)-NHEt] | 1 | 9.37 | – |
| CCNC(=O)[C@H](Cc1ccc(O)c(C(C)(C)C)c1)N(CC)C(=O)[C@H](C(C)C)N(C)C(=O)[C@H](Cc1ccc(F)cc1)NCC [Example 109, N-Et-Phe(4-F)-N-Me-Val-N-Et-Tyr(3-tBu)-NHEt] | 2 | 9.77 | – |
| CCCNC(=O)[C@H](Cc1ccc(O)c(C(C)(C)C)c1)NC(=O)[C@H](C(C)C)N(C)C(=O)[C@@H](N)Cc1ccc(F)cc1 [Example 119, Phe(4-F)-N-Me-Val-Tyr(3-tBu)-NH-n-Pr] (H-[Phe(4-F)]-[NMeV]-[Tyr(3-tBu)]-NHPr) | 0.398 | 9.40 | – |
| CC(C)NC(=O)[C@H](Cc1ccc(O)c(C(C)(C)C)c1)NC(=O)[C@H](C(C)C)N(C)C(=O)[C@@H](N)Cc1ccc(F)cc1 [Example 120, Phe(4-F)-N-Me-Val-Tyr(3-tBu)-NH-i-Pr] (H-[Phe(4-F)]-[NMeV]-[Tyr(3-tBu)]-NHiPr) | 1 | 9.57 | – |
| CC(C)[C@@H](C(=O)N(C)[C@@H](Cc1ccc(O)c(C(C)(C)C)c1)C(=O)NC1CC1)N(C)C(=O)[C@@H](N)Cc1ccc(F)cc1 [Example 121, Phe(4-F)-N-Me-Val-N-Me-Tyr(3-tBu)-NH-c-Pr] | 1.26 | 9.39 | – |
| CC(C)[C@@H](C(=O)N[C@@H](Cc1ccc(O)c(C(C)(C)C)c1)C(=O)NCO)N(C)C(=O)[C@@H](N)Cc1ccc(F)cc1 [Example 122, Phe(4-F)-N-Me-Val-Tyr(3-tBu)-NHCH2OH] | 1 | 9.33 | – |
| CN[C@@H](Cc1ccc(F)cc1)C(=O)N(C)[C@H](C(=O)N[C@@H](Cc1ccc(O)c(C(C)(C)C)c1)C(=O)NCO)C(C)C [Example 123, N-Me-Phe(4-F)-N-Me-Val-Tyr(3-tBu)-NHCH2OH] | 0.794 | 9.15 | – |
| CCN[C@@H](Cc1ccc(F)cc1)C(=O)N(C)[C@H](C(=O)N[C@@H](Cc1ccc(O)c(C(C)(C)C)c1)C(=O)NCO)C(C)C [Example 124, N-Et-Phe(4-F)-N-Me-Val-Tyr(3-tBu)-NHCH2OH] | 0.794 | 9.01 | – |
| CN[C@@H](Cc1ccc(F)cc1)C(=O)N(C)[C@H](C(=O)N(C)[C@@H](Cc1ccc(O)c(C(C)(C)C)c1)C(=O)NCO)C(C)C [Example 125, N-Me-Phe(4-F)-N-Me-Val-N-Me-Tyr(3-tBu)-NHCH2OH] | 1 | 9.00 | – |
| CCN[C@@H](Cc1ccc(F)cc1)C(=O)N(C)[C@H](C(=O)N(C)[C@@H](Cc1ccc(O)c(C(C)(C)C)c1)C(=O)NCO)C(C)C [Example 126, N-Et-Phe(4-F)-N-Me-Val-N-Me-Tyr(3-tBu)-NHCH2OH] | 0.631 | 8.72 | – |
| CCN(C(=O)[C@H](C(C)C)N(C)C(=O)[C@@H](N)Cc1ccc(F)cc1)[C@@H](Cc1ccc(O)c(C(C)(C)C)c1)C(=O)NCO [Example 127, Phe(4-F)-N-Me-Val-N-Et-Tyr(3-tBu)-NHCH2OH] | 2 | 8.77 | – |
| CCN(C(=O)[C@H](C(C)C)N(C)C(=O)[C@H](Cc1ccc(F)cc1)NC)[C@@H](Cc1ccc(O)c(C(C)(C)C)c1)C(=O)NCO [Example 128, N-Me-Phe(4-F)-N-Me-Val-N-Et-Tyr(3-tBu)-NHCH2OH] | 2 | 8.82 | – |
